Assay results as given in patent US12162820B2 (TAIWANJ PHARMACEUTICALS CO., LTD., priority 2019, dated 2024).

Columns and labels:
Type in all cases: biochemical
HDAC1 = target: T1, HDAC1 (Homo sapiens, UniProt Q13547); experiment: HDAC Inhibition Screening Assay (FLUOR DE LYS Fluorimetric Drug Discovery Kit), HDAC1; conditions: for inhibition at 2 µM: 2 μM compound; for inhibition at 10 µM: 10 μM compound; for inhibition at 50 µM: 50 μM compound
T1 construct: purchased Enzo Life Sciences
Protocol: (§1) The HDAC1/HDAC2/HDAC3 in vitro activities are detected by Enzo Life Sciences' HDAC1/HDAC2/HDAC3 Fluorimetric Drug Discovery Kit. The assay is based on the FLUOR DE LYS® Substrate and FLUOR DE LYS® Developer combination. The assay procedure has two steps. First, the FLUOR DE LYS® Substrate, which comprises an acetylated lysine side chain, is incubated with HDAC1/HDAC2/HDAC3, respectively. Deacetylation of the substrate sensitizes the substrate so that, in the second step, treatment with the FLUOR DE LYS® Developer produces a fluorophore. The signals of the test compounds (Compounds 1˜83; at concentrations of 2 μM, 10 μM and 50 μM) in 96-well plates are detected at 360 nm or 485 nm excitation and 460 nm or 530 nm emission with a Molecular Devices SpectraMax i3 Imaging Cytometer. The HDAC1/HDAC2/HDAC3 activities are expressed in percentage of basal control minus baseline control.

HDAC3 = target: T2, HDAC3 (Homo sapiens, UniProt O15379); experiment: HDAC Inhibition Screening Assay (FLUOR DE LYS Fluorimetric Drug Discovery Kit), HDAC3; conditions: for inhibition at 2 µM: 2 μM compound; for inhibition at 10 µM: 10 μM compound; for inhibition at 50 µM: 50 μM compound
T2 construct: purchased Enzo Life Sciences
Protocol: as §1

HDAC2 = target: T3, HDAC2 (Homo sapiens, UniProt Q92769); experiment: HDAC Inhibition Screening Assay (FLUOR DE LYS Fluorimetric Drug Discovery Kit), HDAC2; conditions: for inhibition at 2 µM: 2 μM compound; for inhibition at 10 µM: 10 μM compound; for inhibition at 50 µM: 50 μM compound
T3 construct: purchased Enzo Life Sciences
Protocol: as §1

ATX (autotaxin) = target: T4, ATX (autotaxin) (Homo sapiens, UniProt Q13822); experiment: Autotaxin Inhibition Screening Assay (choline release from LPC, LPC-CR); conditions: for inhibition at 4 µM: 4 μM compound; for inhibition at 20 µM: 20 μM compound; for inhibition at 50 µM: 50 μM compound
T4 construct: purchased Cayman 10803
Protocol: ATX (autotaxin) activity was measured by choline release from LPC in presence or absence of test compounds (Compounds 1˜83; at concentrations of 4 μM, 20 μM and 50 μM). Twenty (20) ng ATX (10803, Cayman, MI, USA) was incubated with 100 μM 14:0 LPC (855575P, Avanti, AL, USA) in a final volume of 100 μL buffer containing 50 mM Tris pH 8.0, 0.01% Triton X-100, 50 mM CaCl2, 1 unit/ml choline oxidase, 2 unit/ml horseradish peroxidase (HRP), 2 mM homovanilic acid (HVA). The relative amount of released choline was measured by HVA fluorescence in a 96-well plate. Fluorescent intensity was determined at λex/λem=320/450 nm every 60 sec for 90 min with a SpectraMax i3 (Molecular Devices, CA, USA). Data analysis was performed using GraphPad Prism (GraphPad, La Jolla CA, USA). Inhibition %=[1−(SlopeTA−SlopeBlank)/(SlopeVehicle−SlopeBlank)]×100% HDAC Inhibition Screening Assay

T2 sequence (O15379 whole entry): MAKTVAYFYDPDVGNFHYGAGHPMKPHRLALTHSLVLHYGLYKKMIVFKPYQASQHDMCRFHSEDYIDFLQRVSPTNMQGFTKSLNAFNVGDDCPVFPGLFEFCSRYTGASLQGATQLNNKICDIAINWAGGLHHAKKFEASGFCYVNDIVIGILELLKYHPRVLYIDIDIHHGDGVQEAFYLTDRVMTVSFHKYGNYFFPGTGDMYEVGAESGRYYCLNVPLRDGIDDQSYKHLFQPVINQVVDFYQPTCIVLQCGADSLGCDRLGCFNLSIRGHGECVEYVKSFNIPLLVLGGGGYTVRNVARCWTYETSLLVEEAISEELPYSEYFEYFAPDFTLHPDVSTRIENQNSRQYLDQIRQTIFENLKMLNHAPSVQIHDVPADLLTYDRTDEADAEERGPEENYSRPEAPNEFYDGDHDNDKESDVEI
T2 sequence (O75376 395-489 partner limits assumed): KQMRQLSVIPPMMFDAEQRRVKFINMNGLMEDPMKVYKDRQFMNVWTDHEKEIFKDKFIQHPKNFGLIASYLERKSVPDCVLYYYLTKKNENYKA
T1 sequence (Q13547 whole entry): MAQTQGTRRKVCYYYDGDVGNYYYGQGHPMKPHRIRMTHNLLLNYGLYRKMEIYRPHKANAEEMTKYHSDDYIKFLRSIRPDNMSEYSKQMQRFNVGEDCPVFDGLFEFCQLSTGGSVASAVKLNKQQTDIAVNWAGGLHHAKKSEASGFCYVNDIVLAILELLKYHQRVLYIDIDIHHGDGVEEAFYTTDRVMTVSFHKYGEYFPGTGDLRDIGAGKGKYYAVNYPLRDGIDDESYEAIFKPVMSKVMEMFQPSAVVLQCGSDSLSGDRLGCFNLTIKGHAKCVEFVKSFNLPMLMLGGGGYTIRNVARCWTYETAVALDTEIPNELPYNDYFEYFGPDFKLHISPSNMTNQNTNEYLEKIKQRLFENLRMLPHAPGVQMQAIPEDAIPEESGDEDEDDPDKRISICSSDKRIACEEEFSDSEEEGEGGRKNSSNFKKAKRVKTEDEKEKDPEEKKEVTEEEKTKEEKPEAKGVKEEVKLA
T3 sequence (Q92769 whole entry): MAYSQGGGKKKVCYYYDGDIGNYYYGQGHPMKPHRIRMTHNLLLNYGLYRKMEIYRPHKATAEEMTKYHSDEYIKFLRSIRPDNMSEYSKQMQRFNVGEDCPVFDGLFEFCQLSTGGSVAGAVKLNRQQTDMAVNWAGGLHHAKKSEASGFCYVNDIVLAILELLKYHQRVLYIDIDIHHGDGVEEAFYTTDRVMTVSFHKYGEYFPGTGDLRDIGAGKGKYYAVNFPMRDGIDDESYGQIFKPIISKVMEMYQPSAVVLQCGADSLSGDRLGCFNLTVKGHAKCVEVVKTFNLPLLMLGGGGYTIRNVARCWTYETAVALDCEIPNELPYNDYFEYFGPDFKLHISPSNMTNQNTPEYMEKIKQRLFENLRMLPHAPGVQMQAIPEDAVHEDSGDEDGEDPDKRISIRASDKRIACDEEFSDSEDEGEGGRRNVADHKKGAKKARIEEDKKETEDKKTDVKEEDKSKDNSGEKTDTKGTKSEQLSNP

SMILES | inhibition at 2 µM (HDAC1) [%] | inhibition at 10 µM (HDAC1) [%] | inhibition at 50 µM (HDAC1) [%] | inhibition at 2 µM (HDAC3) [%] | inhibition at 10 µM (HDAC3) [%] | inhibition at 50 µM (HDAC3) [%] | inhibition at 2 µM (HDAC2) [%] | inhibition at 10 µM (HDAC2) [%] | inhibition at 50 µM (HDAC2) [%] | inhibition at 4 µM (ATX (autotaxin)) [%] | inhibition at 20 µM (ATX (autotaxin)) [%] | inhibition at 50 µM (ATX (autotaxin)) [%]
O=C(CCCCCNC(=O)COc1ccc2c(c1)CC/C(=C\c1cc(C(F)(F)F)cc(C(F)(F)F)c1)C2=O)NO [Compound 74, (E)-6-(2-((6-(3,5-bis(trifluoromethyl)benzylidene)-5-oxo-5,6,7,8-tetra-hydronaphthalen-2-yl)oxy)acetamido)-N-hydroxyhexanamide] | < 50 | > 80 | > 80 | < 50 | > 80 | > 80 | 50 to 80 | > 80 | > 80 | > 80 | > 80 | > 80
Cc1[nH]c2ccccc2c1CCNC1CCc2cc(/C=C/C(=O)NO)ccc21 (stereo not drawn) [Compound 60, (E)-N-hydroxy-3-(1-((2-(2-methyl-1H-indol-3-yl)ethyl)amino)-2,3-dihydro-1H-inden-5-yl)acryl amide] | > 80 | > 80 | > 80 | > 80 | > 80 | > 80 | > 80 | > 80 | > 80 | < 50 | < 50 | < 50
O=C(CCCCCCC(=O)Nc1ccc2c(c1)CCCC2=O)NO [Compound 1, N^1-hydroxy-N^8-(5-oxo-5,6,7,8-tetrahydronaphthalen-2-yl)octanediamide] | > 80 | > 80 | > 80 | > 80 | > 80 | > 80 | > 80 | > 80 | > 80 | < 50 | < 50 | < 50
O=C(CCCCCC(=O)Nc1ccc2c(c1)CC/C(=C\c1cc(C(F)(F)F)cc(C(F)(F)F)c1)C2=O)NO [Compound 12, (E)-N1-(6-(3,5-bis(trifluoromethyl)benzylidene)-5-oxo-5,6,7,8-tetrahydronaphthalen-2-yl)-N7-hydroxyheptanediamide] | < 50 | 50 to 80 | > 80 | 50 to 80 | > 80 | > 80 | 50 to 80 | > 80 | > 80 | > 80 | > 80 | > 80
CCN(CC)c1ccc(C(=O)NC2CCc3cc(/C=C/C(=O)NCCCCCC(=O)NO)ccc32)cc1 (stereo not drawn) [Compound 30, (E)-4-(diethylamino)-N-(5-(3-((6-(hydroxyamino)-6-oxohexyl)amino)-3-oxoprop-1-en-1-yl)-2,3-dihydro-1H-inden-1-yl)benzamide] | > 80 | > 80 | > 80 | > 80 | > 80 | > 80 | > 80 | > 80 | > 80 | < 50 | < 50 | 50 to 80
O=C(CCCCNC(=O)c1ccc2c(c1)CC/C(=C\c1cc(C(F)(F)F)cc(C(F)(F)F)c1)C2=O)NO [Compound 81, (E)-6-(3,5-bis(trifluoromethyl)benzylidene)-N-(5-(hydroxyamino)-5-oxopentyl)-5-oxo-5,6,7,8-tetrahydronaphthalene-2-carboxamide] | < 50 | < 50 | 50 to 80 | < 50 | 50 to 80 | 50 to 80 | < 50 | < 50 | 50 to 80 | > 80 | > 80 | > 80
O=C(CCCCCCC(=O)Nc1ccc2c(c1)CCC/C2=N\O)NO [Compound 3, (E)-N1-hydroxy-N8-(5-(hydroxyimino)-5,6,7,8-tetrahydronaphthalen-2-yl)octanediamide] | > 80 | > 80 | > 80 | > 80 | > 80 | > 80 | > 80 | > 80 | > 80 | < 50 | < 50 | < 50
